# Square brackets hold non-standard residues; d marks the D form. Ends that are not written are not given here. * marks the point of attachment. Boc = CC(C)(C)OC(=O)*; For = O=C*
# Key:
# mouse neutrophils = test: H2O2 generation in mouse neutrophils in vitro; format: cell-based; settings: antagonist 10 μM prior to WKYMVm (100 nM); FIG. 3d
# Description: Because the bactericidal effect of phagocytes is related with H2O2 production (Hampton, M. B., et al., Blood. 92:3007-3017), the effect of WKYMVm on H2O2 generation in mouse neutrophils was evaluated. […] Mouse neutrophils were stimulated with vehicle (PBS) or WKYMVm (1-1000 nM) for 15 min. Neutrophils isolated from sham, CLP−, or CLP+WKYMVm-treated mice were stimulated with 100 nM PMA for 1 h. Freshly isolated neutrophils from normal mice were stimulated with various concentrations of WKYMVm for 10 min in the presence of cytochalasin B (5 μM).
# To investigate the role of FPR1 and FPR2, neutrophils were preincubated with Boc-PLPLP (10 μM), WRW^4 (10 μM), or vehicle (DMSO) for 30 minutes prior to adding WKYMVm (100 nM) for 10 min. H2O2 in the supernatant was measured using an H2O2 assay kit (Molecular Probes).
# Boc-PLPLP (10 μM), WRW^4 (10 μM), or Boc-PLPLP (10 μM)+WRW^4 (10 μM) was added […] prior to the addition of WKYMVm (100 nM).
# CLP mice = test: Survival in CLP (cecal ligation and puncture) sepsis mouse model; format: in vivo; settings: for reversal of the therapeutic effects of WKYMVm by antagonist pre-treatment: antagonist 4 mg/kg subcutaneous 2 h before CLP and 2 h before each WKYMVm (4 mg/kg) treatment, FIG. 1d; for therapeutic effect of WKYMVm analogs on experimental sepsis: ICR mice, survival up to 10 days, FIG. 1h; for therapeutic effect of WKYMVm analogs on experimental sepsis / therapeutic effect of FPR ligands and scrambled peptide: 4 mg/kg subcutaneous four times at 2, 14, 26, 38 h post-CLP; for therapeutic effect of FPR ligands and scrambled peptide: FIG. 1g
# Description: Male WT ICR mice and IL-12R 2-, IFN-γ-deficient, and WT C57BL/6 mice (kindly donated from Y. C. Sung, POSTECH, Republic of Korea) were used for experimental sepsis model, as previously described (Yan, J. J., Nat. Med. 10:161-167, 2004). All experiments involving animals adhered to the guidelines and received the approval of the Institutional Review Committee for Animal Care and Use at Dong-A University. For CLP, mice were anesthetized with pentothal sodium (50 mg/kg, intraperitoneal) and a small abdominal midline incision was made to expose the cecum. The cecum was then ligated below the ileocecal valve, punctured twice through both surfaces (or once for the measurement of cytokine production) using a 22-gauge needle and the abdomen was closed. Sham CLP mice were subjected to the same procedure, but without ligation and puncture of the cecum. Survival was monitored once daily for 10 days.
# To investigate whether WKYMVm has a therapeutic effect on experimental sepsis, CLP was performed on albino ICR (Institute of Cancer Research) mice, and their survival was monitored for up to 10 days. […] Various doses of WKYMVm were injected subcutaneously four times into CLP mice at 2, 14, 26, and 38 h post-CLP.
# To examine the effect of WKYMVm treatment, mice were injected subcutaneously with various doses of the peptide or with PBS as a negative control beginning 2 h after CLP. […] Various doses of WKYMVm were injected subcutaneously four times into CLP mice at […] post-CLP.
# CLP mice were given zero, one, two, three, four, or five injections of WKYMVm (4 mg/kg, subcutaneous).
# To evaluate the roles of FPR1 and FPR2, an FPR1 antagonist [N-t-butoxycarbonyl-Phe-Leu-Phe-Leu-Phe (Boc-PLPLP) (SEQ ID NO:12)] (La, M., et al., FASEB J. 15:2247-2256) and an FPR2 antagonist [Trp-Arg-Trp-Trp-Trp-Trp; WRWWWW (WRW^4) (SEQ ID NO:13)] (Bae, Y. S et al., J. Immunol. 173:607-614.) were administered prior to WKYMVm treatment in CLP mice. […] Boc-PLPLP (4 mg/kg), WRW^4 (4 mg/kg), or Boc-PLPLP (4 mg/kg)+WRW^4 (4 mg/kg) was injected subcutaneously 2 h before CLP. After CLP, Boc-PLPLP (4 mg/kg) or WRW^4 (4 mg/kg) was injected subcutaneously four times at 12-h intervals 2 h before WKYMVm treatment (4 mg/kg, subcutaneous).
# Statistical analysis. Survival data were analyzed using the log-rank test. All other data were evaluated using ANOVA. The Bonferroni test was used for post hoc comparisons and statistical significance was set a priori at P<0.05.
# FPR-family agonists (WKYMVm (SEQ ID NO:1), WKYMVM(SEQ ID NO:14), fMLF(SEQ ID NO:15) and MMK-1 (SEQ ID NO:16)) or scrambled peptide (VWMYmK: SEQ ID NO: 17) (4 mg/kg, respectively) were injected subcutaneously four times to CLP mice at 2, 14, 26, and 38 h post-CLP.
# To investigate whether the analogs of WKYMVm(SEQ ID NO:1), WRYMVm(SEQ ID NO: 2), WKWMVm(SEQ ID NO: 3), WKRMVm(SEQ ID NO: 4), WKFMVm(SEQ ID NO: 5), WHYMVm(SEQ ID NO: 6), WKYMYm(SEQ ID NO: 7), WKYMFm(SEQ ID NO: 8), WKYMWm(SEQ ID NO: 9), WKYMVV(SEQ ID NO: 10) and WKEMVm(SEQ ID NO: 11) have therapeutic effects on experimental sepsis, CLP was performed on albino ICR (Institute of Cancer Research) mice, and their survival was monitored for up to 10 days. […] 4 mg/kg of WKYMVm or each analog of WKYMVm was injected subcutaneously four times into CLP mice at 2, 14, 26, and 38 h post-CLP (FIG. 1h).
# To investigate the role of Th1 cytokines (IL-12 and IFN-γ) on WKYMVm-induced survival effect after sepsis, the CLP model was applied to IL-12Rβ2- and IFN-γ-deficient mice (C57BL/6 background). […] WT C57BL/6 or IL-12Rβ2-deficient mice were subcutaneously injected with WKYMVm (4 mg/kg) or PBS four times to CLP mice 2, 14, 26, and 38 h post-CLP. In FIG. 5d, WT C57BL/6 or IFN-γ-deficient mice were subcutaneously injected with WKYMVm (4 mg/kg) or PBS four times to CLP mice 2, 14, 26, and 38 h post-CLP. Data are expressed as the mean±standard error. *P<0.05; **P<0.01 compared with vehicle (c, d). n=10-16 mice per group (c,d) […]
# [1] = tested on: splenocytes of Th1 mouse model; test: Splenocyte proliferation assay, Th1 mouse model (OVA+LPS); format: in vivo; settings: OVA+LPS immunized mice; 72 h incubation with OVA; compared to sham-treated mice; FIG. 4e
# Description: To generate the Th1 and Th2 mouse models (FIG. 4b), 6-week-old C57BL/6 WT mice were twice immunized intraperitoneally with 75 μg of OVA+10 μg of LPS or 2 mg of alum on days 0 and 7 and then challenged intraperitoneally with 50 μg of OVA on days 14, 15, and 16. Isolated splenocytes were subjected to a cell proliferation assay with and without OVA incubation. Briefly, splenocytes were harvested in RPMI 1640 media and incubated (2×10^5 cells/well) in 96-well flat-bottom plates at 37° C. for 96 h in medium alone or with 5, 50 or 500 μg OVA/ml. The example measured cellular thymidine incorporation following a 72 h culture period with 1 μCi [^3H]thymidine.
# Because IL-2 promotes T-cell proliferation (Benczik, M., et al., Immunol. Invest. 33:109-142), the effect of FPR activation by WKYMVm on Th1 and Th2 cell proliferation was evaluated using inert antigens. WKYMVm (4 mg/kg) was injected subcutaneously four times into CLP mice 2, 14, 26, and 38 h post-CLP. Separate groups of animals were given sham, CLP+PBS, or CLP+WKYMVm treatment. Data are expressed as the mean±standard error (n=8). *P<0.05; **P<0.01 compared with CLP+PBS. […]
# Protocol for the Th1 and Th2 mice (FIG. 4d) was described below. […] Data are expressed as the mean±standard error (n=5 for e, f), and * indicates P<0.05 compared to OVA+PBS group; ** indicates P<0.05 versus the other groups. […]
# [2] = tested on: E. coli ingested by mouse neutrophils; test: Neutrophil bactericidal activity in vitro; format: cell-based; settings: antagonist 10 μM added 30 min prior to WKYMVm (100 nM); FIG. 3b
# Description: To determine whether WKYMVm treatment increases bactericidal activity in vitro, mouse neutrophils were allowed to ingest E. coli for 1 h and were then stimulated with 0.1-1000 nM WKYMVm for 20 min. […] Adherent neutrophils were incubated with 10^6 opsonized E. coli for 1 h, and stimulated with vehicle (PBS) or WKYMVm (0.1, 1, 10, 100, and 1000 nM) for 1 h.
# Because FPR1 and FPR2 are expressed in neutrophils (data not shown), this experiment investigated the roles of FPR1-1 and FPR2-mediated pathways in WKYMVm-induced bactericidal activity. […] Mouse neutrophils were isolated from peripheral blood using a Histopaque-1077 solution (Sigma) as described previously (Bae, Y. S., et al., J. Immunol. 171:6807-6813, 2003). Boc-PLPLP (10 μM), WRW^4 (10 μM), or Boc-PLPLP (10 μM)+WRW^4 (10 μM) was added 30 min prior to the addition of WKYMVm (100 nM). The number of viable bacteria in the neutrophils was then determined.
# Neutrophil bactericidal activity was measured according to the method of Yan, J. J., et al., Nat. Med. 10:161-167, 2004. […] After washing away the unengulfed E. coli, the number of viable bacteria in the neutrophils was determined before and after incubation with several concentrations of WKYMVm or vehicle for 1 h. The percentage of bacteria killed was calculated as 100×(1−number of CFU after WKYMVm stimulation/number of CFU before WKYMVm stimulation). […]
substance,measurement,setting,value
WRWWWW [WRW^4],reversal of WKYMVm-induced H2O2 generation by antagonist pre-treatment,mouse neutrophils,partly reversed
same,reversal of the therapeutic effects of WKYMVm by antagonist pre-treatment,CLP mice,completely reversed
same,"splenocyte proliferation, Th1 mouse model",[1],inhibited
same,WKYMVm-induced bactericidal activity after antagonist pre-treatment,[2],significantly inhibited bactericidal activity
"N-t-butoxycarbonyl-Phe-Leu-Phe-Leu-Phe (Boc-FLFLF) [Boc-PLPLP, FPR1 antagonist]",reversal of WKYMVm-induced H2O2 generation by antagonist pre-treatment,mouse neutrophils,partly reversed
same,reversal of the therapeutic effects of WKYMVm by antagonist pre-treatment,CLP mice,only partly reversed
same,"splenocyte proliferation, Th1 mouse model",[1],inhibited
same,WKYMVm-induced bactericidal activity after antagonist pre-treatment,[2],significantly inhibited bactericidal activity
WKWMVm: analog of WKYMVm (WKWMV[dM]),therapeutic effect of WKYMVm analogs on experimental sepsis,CLP mice,no therapeutic effects
WRYMVm: analog of WKYMVm (WRYMV[dM]),therapeutic effect of WKYMVm analogs on experimental sepsis,CLP mice,no therapeutic effects
WKFMVm: analog of WKYMVm (WKFMV[dM]),therapeutic effect of WKYMVm analogs on experimental sepsis,CLP mice,no therapeutic effects
Val-Trp-Met-Tyr-D-Met-Lys (VWMY[dM]K) [VWMYmK],therapeutic effect of FPR ligands and scrambled peptide,CLP mice,no therapeutic effect
WKYMVV: analog of WKYMVm (WKYMVV),therapeutic effect of WKYMVm analogs on experimental sepsis,CLP mice,no therapeutic effects
WKYMFm: analog of WKYMVm (WKYMF[dM]),therapeutic effect of WKYMVm analogs on experimental sepsis,CLP mice,no therapeutic effects
WKRMVm: analog of WKYMVm (WKRMV[dM]),therapeutic effect of WKYMVm analogs on experimental sepsis,CLP mice,no therapeutic effects
LESIFRSLLFRVM (MMK-1 peptide) [FPR-family agonist],therapeutic effect of FPR ligands and scrambled peptide,CLP mice,lower than that of WKYMVm
WHYMVm: analog of WKYMVm (WHYMV[dM]),therapeutic effect of WKYMVm analogs on experimental sepsis,CLP mice,no therapeutic effects
"N-formyl-Met-Leu-Phe (For-Met-Leu-Phe) [fMLF, FPR-family agonist]",therapeutic effect of FPR ligands and scrambled peptide,CLP mice,lower than that of WKYMVm
WKYMWm: analog of WKYMVm (WKYMW[dM]),therapeutic effect of WKYMVm analogs on experimental sepsis,CLP mice,no therapeutic effects
WKEMVm: analog of WKYMVm (WKEMV[dM]),therapeutic effect of WKYMVm analogs on experimental sepsis,CLP mice,no therapeutic effects
WKYMYm: analog of WKYMVm (WKYMY[dM]),therapeutic effect of WKYMVm analogs on experimental sepsis,CLP mice,no therapeutic effects
